Data as given in patent US10844077B2, “Thiazolyl-containing compounds for treating proliferative diseases” (Dana-Farber Cancer Institute, Inc., priority 2014, dated 2020).
Like-named read-outs stand apart in the source and are kept apart here.

What was measured:
Assay type in all cases: binding
[1] = target: broad panel of kinases (Homo sapiens, UniProt Q9NWZ3); settings: IRAK4; 1 μM
[2] = target: broad panel of kinases (Homo sapiens, UniProt P00533, T790M); settings: EGFR(T790M); 1 μM
[3] = target: broad panel of kinases (Homo sapiens, UniProt Q9UBE8); settings: NLK; 1 μM
[4] = target: broad panel of kinases (Homo sapiens, UniProt O15264); settings: p38-delta; 1 μM
[5] = target: broad panel of kinases (Homo sapiens, UniProt Q8TDR2); settings: STK35; 1 μM
[6] = target: broad panel of kinases (Homo sapiens, UniProt Q9BZL6); settings: PRKD2; 1 μM
[7] = target: broad panel of kinases (Homo sapiens, UniProt P16234); settings: PDGFRA; 1 μM
Chain of broad panel of kinases (Homo sapiens, UniProt P16234) (P16234 24-1089 limits assumed): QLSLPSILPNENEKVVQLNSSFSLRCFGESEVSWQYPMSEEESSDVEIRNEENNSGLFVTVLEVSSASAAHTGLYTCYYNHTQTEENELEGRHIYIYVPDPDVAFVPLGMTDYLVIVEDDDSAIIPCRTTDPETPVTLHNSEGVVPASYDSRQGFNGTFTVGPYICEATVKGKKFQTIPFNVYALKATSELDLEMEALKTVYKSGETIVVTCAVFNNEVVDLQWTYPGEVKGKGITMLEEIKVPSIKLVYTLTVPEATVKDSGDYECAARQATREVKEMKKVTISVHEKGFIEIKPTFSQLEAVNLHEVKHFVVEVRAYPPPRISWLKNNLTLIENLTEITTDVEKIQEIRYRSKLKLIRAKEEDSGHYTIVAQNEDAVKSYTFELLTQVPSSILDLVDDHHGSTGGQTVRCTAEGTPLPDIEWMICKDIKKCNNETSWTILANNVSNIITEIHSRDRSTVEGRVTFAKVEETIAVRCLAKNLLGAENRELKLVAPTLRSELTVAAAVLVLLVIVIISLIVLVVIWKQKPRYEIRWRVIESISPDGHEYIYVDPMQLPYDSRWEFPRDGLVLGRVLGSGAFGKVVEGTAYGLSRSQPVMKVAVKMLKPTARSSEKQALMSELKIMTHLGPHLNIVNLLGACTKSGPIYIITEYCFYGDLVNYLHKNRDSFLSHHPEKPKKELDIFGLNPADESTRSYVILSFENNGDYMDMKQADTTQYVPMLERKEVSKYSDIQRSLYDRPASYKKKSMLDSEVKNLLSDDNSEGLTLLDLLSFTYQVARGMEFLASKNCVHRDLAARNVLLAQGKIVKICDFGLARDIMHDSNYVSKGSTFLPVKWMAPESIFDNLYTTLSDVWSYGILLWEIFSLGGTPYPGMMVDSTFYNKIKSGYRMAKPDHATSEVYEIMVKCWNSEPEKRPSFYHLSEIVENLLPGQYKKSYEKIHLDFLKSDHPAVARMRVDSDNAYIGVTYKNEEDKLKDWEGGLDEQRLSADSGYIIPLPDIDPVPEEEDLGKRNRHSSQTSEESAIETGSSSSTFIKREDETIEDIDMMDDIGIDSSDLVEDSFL

[8] = target: broad panel of kinases (Homo sapiens, UniProt P45984); settings: JNK2; 1 μM
[9] = target: broad panel of kinases (Homo sapiens, UniProt Q13163); settings: MEK5; 1 μM
[10] = target: broad panel of kinases (Homo sapiens, UniProt Q9UHD2); settings: TBK1; 1 μM
[11] = target: broad panel of kinases (Homo sapiens, UniProt P36888, D835Y); settings: FLT3(D835Y); 1 μM
[12] = target: broad panel of kinases (Homo sapiens, UniProt O14936); settings: CASK; 1 μM
[13] = target: broad panel of kinases (Homo sapiens, UniProt O00506); settings: YSK1; 1 μM
[14] = target: broad panel of kinases (Homo sapiens, UniProt O95819); settings: MAP4K4; 1 μM
[15] = target: broad panel of kinases (Homo sapiens, UniProt Q13164); settings: ERK5; 1 μM
Chain of broad panel of kinases (Homo sapiens, UniProt Q13164) (Q13164 2-816 limits assumed): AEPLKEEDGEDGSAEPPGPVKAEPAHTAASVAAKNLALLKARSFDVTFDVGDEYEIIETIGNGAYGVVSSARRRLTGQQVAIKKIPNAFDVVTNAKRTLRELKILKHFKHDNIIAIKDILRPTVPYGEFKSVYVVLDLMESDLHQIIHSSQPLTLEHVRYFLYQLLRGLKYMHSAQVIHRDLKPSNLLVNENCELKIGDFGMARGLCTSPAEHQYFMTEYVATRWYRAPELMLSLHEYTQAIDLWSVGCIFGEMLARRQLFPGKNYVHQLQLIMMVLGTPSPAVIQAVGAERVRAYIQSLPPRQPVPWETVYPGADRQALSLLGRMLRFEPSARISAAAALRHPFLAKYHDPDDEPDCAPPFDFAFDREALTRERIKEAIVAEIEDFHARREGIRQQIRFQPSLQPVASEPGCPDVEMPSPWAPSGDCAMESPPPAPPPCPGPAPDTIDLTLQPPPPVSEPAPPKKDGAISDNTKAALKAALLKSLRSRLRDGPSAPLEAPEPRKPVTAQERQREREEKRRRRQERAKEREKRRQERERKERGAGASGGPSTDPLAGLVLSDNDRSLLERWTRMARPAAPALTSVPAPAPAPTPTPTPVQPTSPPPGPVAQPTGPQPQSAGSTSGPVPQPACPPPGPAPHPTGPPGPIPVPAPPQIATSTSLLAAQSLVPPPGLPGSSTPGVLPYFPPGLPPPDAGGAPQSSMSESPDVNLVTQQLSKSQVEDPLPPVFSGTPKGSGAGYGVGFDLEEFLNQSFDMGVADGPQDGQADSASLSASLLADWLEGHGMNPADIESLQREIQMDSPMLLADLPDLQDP

[16] = target: broad panel of kinases (Homo sapiens, UniProt Q06187); settings: BTK; 1 μM
Chain of broad panel of kinases (Homo sapiens, UniProt Q06187) (Q06187 2-659 limits assumed): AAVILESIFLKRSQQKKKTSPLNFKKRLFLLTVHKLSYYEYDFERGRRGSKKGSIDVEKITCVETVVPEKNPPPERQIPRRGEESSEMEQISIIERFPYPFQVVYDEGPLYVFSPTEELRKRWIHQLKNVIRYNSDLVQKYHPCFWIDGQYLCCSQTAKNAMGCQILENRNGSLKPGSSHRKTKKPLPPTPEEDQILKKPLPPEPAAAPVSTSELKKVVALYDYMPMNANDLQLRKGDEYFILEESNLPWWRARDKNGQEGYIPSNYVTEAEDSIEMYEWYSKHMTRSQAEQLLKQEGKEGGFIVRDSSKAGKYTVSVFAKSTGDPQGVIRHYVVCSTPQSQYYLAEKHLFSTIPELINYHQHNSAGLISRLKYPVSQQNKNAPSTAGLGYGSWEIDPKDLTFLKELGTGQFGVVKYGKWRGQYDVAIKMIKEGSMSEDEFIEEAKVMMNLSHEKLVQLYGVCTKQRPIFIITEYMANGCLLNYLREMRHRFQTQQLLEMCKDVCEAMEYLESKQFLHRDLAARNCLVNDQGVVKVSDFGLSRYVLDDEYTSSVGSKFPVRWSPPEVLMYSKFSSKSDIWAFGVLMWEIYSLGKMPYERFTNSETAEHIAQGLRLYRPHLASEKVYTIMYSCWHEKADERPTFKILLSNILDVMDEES

[17] = target: broad panel of kinases (Homo sapiens, UniProt Q8N5S9); settings: CAMKK1; 1 μM
[18] = target: broad panel of kinases (Homo sapiens, UniProt Q9P1W9); settings: PIM2; 1 μM
[19] = target: broad panel of kinases (Homo sapiens, UniProt P68400); settings: CSNK2A1; 1 μM
[20] = target: broad panel of kinases (Homo sapiens, UniProt P08069); settings: IGF1R; 1 μM
Chain of broad panel of kinases (Homo sapiens, UniProt P08069) (P08069 31-736 limits assumed): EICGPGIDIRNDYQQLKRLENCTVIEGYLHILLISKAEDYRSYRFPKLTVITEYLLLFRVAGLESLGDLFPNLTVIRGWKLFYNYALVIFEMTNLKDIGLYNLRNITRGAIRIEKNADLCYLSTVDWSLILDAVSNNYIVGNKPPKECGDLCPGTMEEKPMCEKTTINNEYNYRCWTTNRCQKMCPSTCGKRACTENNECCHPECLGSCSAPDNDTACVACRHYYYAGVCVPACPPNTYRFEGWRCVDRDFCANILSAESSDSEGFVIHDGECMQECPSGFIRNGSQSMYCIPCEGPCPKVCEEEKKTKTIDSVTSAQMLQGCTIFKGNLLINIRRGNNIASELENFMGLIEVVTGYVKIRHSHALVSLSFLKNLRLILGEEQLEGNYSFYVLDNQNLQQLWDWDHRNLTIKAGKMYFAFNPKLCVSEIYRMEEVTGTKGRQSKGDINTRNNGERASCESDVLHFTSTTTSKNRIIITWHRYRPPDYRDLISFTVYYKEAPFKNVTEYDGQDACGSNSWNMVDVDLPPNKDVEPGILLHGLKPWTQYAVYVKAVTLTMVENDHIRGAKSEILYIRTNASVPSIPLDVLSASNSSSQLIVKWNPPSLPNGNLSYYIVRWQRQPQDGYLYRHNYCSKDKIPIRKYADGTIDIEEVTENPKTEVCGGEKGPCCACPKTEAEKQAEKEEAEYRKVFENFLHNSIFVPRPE
Chain of broad panel of kinases (Homo sapiens, UniProt P08069) (P08069 741-1367 limits assumed): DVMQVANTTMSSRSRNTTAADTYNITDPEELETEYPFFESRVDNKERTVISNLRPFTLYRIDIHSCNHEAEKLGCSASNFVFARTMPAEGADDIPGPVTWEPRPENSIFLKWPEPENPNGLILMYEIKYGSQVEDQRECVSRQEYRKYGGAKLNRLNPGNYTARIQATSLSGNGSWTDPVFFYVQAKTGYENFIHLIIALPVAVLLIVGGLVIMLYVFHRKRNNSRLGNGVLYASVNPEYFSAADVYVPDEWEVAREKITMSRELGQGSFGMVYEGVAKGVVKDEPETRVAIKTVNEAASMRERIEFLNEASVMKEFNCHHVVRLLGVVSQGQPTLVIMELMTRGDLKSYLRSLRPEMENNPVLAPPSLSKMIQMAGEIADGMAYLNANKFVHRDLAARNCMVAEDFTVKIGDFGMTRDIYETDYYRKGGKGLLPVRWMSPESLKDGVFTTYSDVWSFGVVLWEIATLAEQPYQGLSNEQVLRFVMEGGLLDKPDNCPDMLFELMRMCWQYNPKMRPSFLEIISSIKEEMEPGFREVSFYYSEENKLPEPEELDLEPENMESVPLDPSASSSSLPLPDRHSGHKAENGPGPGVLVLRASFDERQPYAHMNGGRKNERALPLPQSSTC

[21] = target: broad panel of kinases (Homo sapiens, UniProt P48736); settings: PIK3CG; 1 μM
[22] = target: broad panel of kinases (Homo sapiens, UniProt Q9Y6R4); settings: MAP3K4; 1 μM
[23] = tested on: broad panel of kinases; settings: 1 μM
[24] = target: broad panel of kinases (Homo sapiens, UniProt Q08881); settings: ITK; 1 μM
[25] = target: broad panel of kinases (Homo sapiens, UniProt Q6XUX3); settings: RIPK5; 1 μM
[26] = target: broad panel of kinases (Homo sapiens, UniProt Q96NX5); settings: CAMK1G; 1 μM
[27] = target: broad panel of kinases (Homo sapiens, UniProt Q05397); settings: FAK; 1 μM
Chain of broad panel of kinases (Homo sapiens, UniProt Q05397) (Q05397 2-1052 limits assumed): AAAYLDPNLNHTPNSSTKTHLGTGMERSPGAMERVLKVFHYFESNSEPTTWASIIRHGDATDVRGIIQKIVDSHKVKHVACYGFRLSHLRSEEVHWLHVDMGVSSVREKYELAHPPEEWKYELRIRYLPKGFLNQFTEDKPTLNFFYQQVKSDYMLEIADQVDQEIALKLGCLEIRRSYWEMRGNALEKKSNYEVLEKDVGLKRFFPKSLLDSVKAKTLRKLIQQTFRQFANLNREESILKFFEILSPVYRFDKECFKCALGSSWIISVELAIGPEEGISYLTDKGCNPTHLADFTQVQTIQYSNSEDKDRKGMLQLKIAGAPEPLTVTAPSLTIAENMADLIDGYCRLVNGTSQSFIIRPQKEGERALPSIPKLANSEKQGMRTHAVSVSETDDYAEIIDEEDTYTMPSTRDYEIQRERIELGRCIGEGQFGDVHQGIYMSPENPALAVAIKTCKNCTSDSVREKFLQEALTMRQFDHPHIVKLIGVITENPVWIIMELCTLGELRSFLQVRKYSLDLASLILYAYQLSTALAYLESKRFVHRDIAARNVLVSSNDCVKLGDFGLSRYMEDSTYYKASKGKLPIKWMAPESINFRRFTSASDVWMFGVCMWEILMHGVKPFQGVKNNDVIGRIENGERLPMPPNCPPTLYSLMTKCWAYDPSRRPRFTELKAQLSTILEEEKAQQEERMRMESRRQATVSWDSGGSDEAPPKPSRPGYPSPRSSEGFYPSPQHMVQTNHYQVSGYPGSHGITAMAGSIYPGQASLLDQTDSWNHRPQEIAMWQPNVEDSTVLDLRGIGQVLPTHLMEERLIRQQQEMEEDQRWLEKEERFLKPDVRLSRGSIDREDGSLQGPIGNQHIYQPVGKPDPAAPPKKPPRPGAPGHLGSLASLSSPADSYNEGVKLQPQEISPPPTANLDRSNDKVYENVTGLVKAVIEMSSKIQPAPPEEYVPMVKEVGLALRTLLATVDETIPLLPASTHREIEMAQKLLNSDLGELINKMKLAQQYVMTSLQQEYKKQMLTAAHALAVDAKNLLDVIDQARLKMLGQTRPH

[28] = target: broad panel of kinases (Homo sapiens, UniProt P31751); settings: AKT2; 1 μM
[29] = target: broad panel of kinases (Homo sapiens, UniProt Q86V86); settings: PIM3; 1 μM
[30] = target: broad panel of kinases (Homo sapiens, UniProt P49759); settings: CLK1; 1 μM
[31] = target: broad panel of kinases (Homo sapiens, UniProt Q14012); settings: CAMK1; 1 μM
[32] = target: broad panel of kinases (Homo sapiens, UniProt Q9BRS2); settings: RIOK1; 1 μM
[33] = target: broad panel of kinases (Homo sapiens, UniProt P50613); settings: CDK7; 1 μM
[34] = target: broad panel of kinases (Homo sapiens, UniProt O94804); settings: LOK; 1 μM
[35] = target: broad panel of kinases (Homo sapiens, UniProt P35916); settings: FLT4; 1 μM
[36] = target: broad panel of kinases (Homo sapiens, UniProt P00519, M351T); settings: ABL1(M351T)-phosphorylated; 1 μM
[37] = target: broad panel of kinases (Homo sapiens, UniProt P42684); settings: ABL2; 1 μM

SMILES | percent of control binding remaining (lower = stronger binding) [1] | percent of control binding remaining (lower = stronger binding) [2] | percent of control binding remaining (lower = stronger binding) [3] | percent of control binding remaining (lower = stronger binding) [4] | percent of control binding remaining (lower = stronger binding) [5] | percent of control binding remaining (lower = stronger binding) [6] | percent of control binding remaining (lower = stronger binding) [7] | percent of control binding remaining (lower = stronger binding) [8] | percent of control binding remaining (lower = stronger binding) [9] | percent of control binding remaining (lower = stronger binding) [10] | percent of control binding remaining (lower = stronger binding) [11] | percent of control binding remaining (lower = stronger binding) [12] | percent of control binding remaining (lower = stronger binding) [13] | percent of control binding remaining (lower = stronger binding) [14] | percent of control binding remaining (lower = stronger binding) [15] | percent of control binding remaining (lower = stronger binding) [16] | percent of control binding remaining (lower = stronger binding) [17] | percent of control binding remaining (lower = stronger binding) [18] | percent of control binding remaining (lower = stronger binding) [19] | percent of control binding remaining (lower = stronger binding) [20] | also measured
C=CC(=O)N1CC[C@H](Nc2nc(CN3CCOCC3)cc(Nc3ncc(C(=O)Nc4c(C)cccc4C)s3)n2)C1 [Example I-2] | 76% | 48% | 11% | 100% | 99% | 100% | 4.5% | 100% | 0.25% | 89% | 97% | 100% | 85% | 96% | 91% | 0% | 100% | 84% | 90% | 100% | percent of control binding remaining (lower = stronger binding) [21]: 100%; percent of control binding remaining (lower = stronger binding) [22]: 83%; percent of control binding remaining (lower = stronger binding) ([23]; EGFR(L747-E749del, A750P)): 2.2%; percent of control binding remaining (lower = stronger binding) ([23]; EGFR(L747-S752del, P753S)): 3.6%; percent of control binding remaining (lower = stronger binding) ([23]; EGFR(L747-T751del, Sins)): 2%; percent of control binding remaining (lower = stronger binding) ([23]; FLT3(ITD)): 92%; percent of control binding remaining (lower = stronger binding) [24]: 100%; percent of control binding remaining (lower = stronger binding) [25]: 100%; percent of control binding remaining (lower = stronger binding) [26]: 89%; percent of control binding remaining (lower = stronger binding) [27]: 100%; percent of control binding remaining (lower = stronger binding) [28]: 88%; percent of control binding remaining (lower = stronger binding) [29]: 97%; percent of control binding remaining (lower = stronger binding) [30]: 92%; percent of control binding remaining (lower = stronger binding) [31]: 91%; percent of control binding remaining (lower = stronger binding) [32]: 90%; percent of control binding remaining (lower = stronger binding) [33]: 94%; percent of control binding remaining (lower = stronger binding) [34]: 96%; percent of control binding remaining (lower = stronger binding) [35]: 95%; percent of control binding remaining (lower = stronger binding) [36]: 0.6%; percent of control binding remaining (lower = stronger binding) [37]: 0.3%
C=CC(=O)N1CC[C@H](Nc2nccc(Nc3ncc(C(=O)Nc4c(C)cccc4C)s3)n2)C1 [Example I-3] | 96% | 56% | 9.4% | 100% | 100% | 100% | 6.5% | 90% | 0.45% | 94% | 100% | 98% | 87% | 96% | 90% | 0.05% | 97% | 72% | 98% | 100% | percent of control binding remaining (lower = stronger binding) [21]: 100%; percent of control binding remaining (lower = stronger binding) [22]: 95%; percent of control binding remaining (lower = stronger binding) ([23]; EGFR(L747-E749del, A750P)): 1.4%; percent of control binding remaining (lower = stronger binding) ([23]; EGFR(L747-S752del, P753S)): 3.6%; percent of control binding remaining (lower = stronger binding) ([23]; EGFR(L747-T751del, Sins)): 4.2%; percent of control binding remaining (lower = stronger binding) ([23]; FLT3(ITD)): 98%; percent of control binding remaining (lower = stronger binding) [24]: 98%; percent of control binding remaining (lower = stronger binding) [25]: 86%; percent of control binding remaining (lower = stronger binding) [26]: 97%; percent of control binding remaining (lower = stronger binding) [27]: 100%; percent of control binding remaining (lower = stronger binding) [28]: 100%; percent of control binding remaining (lower = stronger binding) [29]: 89%; percent of control binding remaining (lower = stronger binding) [30]: 100%; percent of control binding remaining (lower = stronger binding) [31]: 63%; percent of control binding remaining (lower = stronger binding) [32]: 82%; percent of control binding remaining (lower = stronger binding) [33]: 94%; percent of control binding remaining (lower = stronger binding) [34]: 97%; percent of control binding remaining (lower = stronger binding) [35]: 100%; % change compared to control [36]: 0.7%; percent of control binding remaining (lower = stronger binding) [37]: 0.25%
